The source of these data is paper PMC6858440, “Computational redesign of the Escherichia coli ribose-binding protein ligand binding pocket for 1,3-cyclohexanediol and cyclohexanol” (Scientific Reports, 2019).

The assay concerns the target RbsB ribose-binding protein (Escherichia coli, UniProt P02925). Description: ITC with purified protein; also ~[…] °C Tm shift with […] ribose.

Chain of RbsB ribose-binding protein (P02925 26-296): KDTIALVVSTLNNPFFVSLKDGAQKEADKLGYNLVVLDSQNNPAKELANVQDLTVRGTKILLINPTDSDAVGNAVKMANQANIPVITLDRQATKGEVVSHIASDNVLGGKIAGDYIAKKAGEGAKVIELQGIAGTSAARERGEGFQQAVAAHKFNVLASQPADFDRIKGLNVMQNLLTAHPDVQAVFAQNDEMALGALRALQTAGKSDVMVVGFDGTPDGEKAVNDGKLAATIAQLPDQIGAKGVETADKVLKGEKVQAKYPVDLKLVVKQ

Take `O=C[C@H](O)[C@H](O)[C@H](O)CO` [ribose]: the dissociation constant Kd amounted to 530 nM.
